Here are results for 17 molecules from patent US20230233569A1 (Revolution Medicines, Inc., priority 2020, published 2023).

Assay [1] relates to 4EBP1 (Thr37/46) phosphorylation (mTORC1) in MDA-MB-468 cells. Put plainly: Cell based AlphaLISA assay, mTOR kinase cellular assay: inhibition of p-4E-BP1 (T37/46) in MDA-MB-468 cells. Conditions: Homo sapiens, read-out: pIC50 for Inhibition of mTORC1 and mTORC2 Substarte Phosphorylation p-4E-BP1-(T37/46) (converted). The method, then: (§1) Cell Based AlphaLISA Assays for Determining IC50 For Inhibition of P-Akt (S473), P-4E-BP1 (T37/46), and P-P70S6K (T389) in MDA-MB-468 Cells
(§2) mTOR Kinase Cellular Assay
(§3) To measure functional activity of mTORC1 and mTORC2 in cells the phosphorylation of 4EBP1 (Thr37/46) and P70S6K (Thr389), and AKT1/2/3 (Ser473) was monitored using AlphaLisa SureFire Ultra Kits (Perkin Elmer). MDA-MB-468 cells (ATCC® HTB-132) were cultured in 96-well tissue culture plates and treated with compounds in the disclosure at concentrations varying from 0.017-1,000 nM for two to four hours at 37° C. Incubations were terminated by removal of the assay buffer and addition of lysis buffer provided with the assay kit. Samples were processed according to the manufacturer's instructions. The Alpha signal from the respective phosphoproteins was measured in duplicate using a microplate reader (Envision, Perkin-Elmer or Spectramax M5, Molecular Devices). Inhibitor concentration response curves were analyzed using normalized IC50 regression curve fitting with control based normalization.
For orientation: In Alpha technology, singlet oxygen from a donor bead excites a nearby acceptor bead.

Assay [2] relates to AKT1/2/3 (Ser473) phosphorylation (mTORC2) in MDA-MB-468 cells. Put plainly: Cell based AlphaLISA assay, mTOR kinase cellular assay: inhibition of p-Akt (S473) in MDA-MB-468 cells. Particulars: Homo sapiens, read-out: pIC50 for Inhibition of mTORC1 and mTORC2 Substarte Phosphorylation p-AKT1/2/3-(S473) (converted). The method, then: as §1, §2, §3

As to `CO[C@H]1C[C@@H]2CC[C@@H](C)[C@@](O)(O2)C(=O)C(=O)N2CCCC[C@H]2C(=O)O[C@H]([C@H](C)C[C@@H]2CC[C@@H](OC(=O)NCc3cnc(N4CCN(c5ncc(C(=O)N6CCN(c7ncc(C(=O)N8CCc9cc(Cn%10nc(-c%11ccc%12oc(N)nc%12c%11)c%11c(N)ncnc%11%10)ccc9C8)cn7)CC6)cn5)CC4)nc3)[C@H](OC)C2)CC(=O)[C@H](C)/C=C(\C)[C@@H](O)[C@@H](OC)C(=O)[C@H](C)C[C@H](C)/C=C/C=C/C=C/1C` [Example 60], the IC50 in assay [1] was 3.16 to 31.6 nM. On to `CO[C@H]1C[C@@H]2CC[C@@H](C)[C@@](O)(O2)C(=O)C(=O)N2CCCC[C@H]2C(=O)O[C@H]([C@H](C)C[C@@H]2CC[C@@H](OC(=O)N3CCc4nc(N5CCN(CCOCCN6CCN(c7ncc(C(=O)N8CCc9cc(Cn%10nc(-c%11ccc%12oc(N)nc%12c%11)c%11c(N)ncnc%11%10)ccc9C8)cn7)CC6)CC5)ncc4C3)[C@H](OC)C2)C[C@@H](OC)[C@H](C)/C=C(\C)[C@@H](O)[C@@H](OC)C(=O)[C@H](C)C[C@H](C)/C=C/C=C/C=C/1C` [Example 126], for which, in assay [1], the IC50 was 3.16 to 31.6 nM. `CO[C@H]1C[C@@H]2CC[C@@H](C)[C@@](O)(O2)C(=O)C(=O)N2CCCC[C@H]2C(=O)O[C@H]([C@H](C)C[C@@H]2CC[C@@H](OC(=S)NCc3cnc(N4CCN(C(=O)CCOCCN5CCN(c6ncc(C(=O)N7CCc8cc(Cn9nc(-c%10ccc%11oc(N)nc%11c%10)c%10c(N)ncnc%109)ccc8C7)cn6)CC5)CC4)nc3)[C@H](OC)C2)C[C@@H](OC)[C@H](C)/C=C(\C)[C@@H](O)[C@@H](OC)C(=O)[C@H](C)C[C@H](C)/C=C/C=C/C=C/1C` [Example 118]: the IC50 in assay [2] was 3.16 to 31.6 nM. On to `CO[C@H]1C[C@@H]2CC[C@@H](C)[C@@](O)(O2)C(=O)C(=O)N2CCCC[C@H]2C(=O)O[C@H]([C@H](C)C[C@@H]2CC[C@@H](OC(=O)NCc3cnc(N4CCN(C(=O)CCOCCN5CCN(C(=O)CCC(=O)N6CCc7cc(Cn8nc(-c9ccc%10oc(N)nc%10c9)c9c(N)ncnc98)ccc7C6)CC5)CC4)nc3)[C@H](OC)C2)C[C@@H](OC)[C@H](C)/C=C(\C)[C@@H](O)[C@@H](OC)C(=O)[C@H](C)C[C@H](C)/C=C/C=C/C=C/1C` [Example 130], for which the IC50 in assay [2] is greater than 1000 nM. As to `CO[C@H]1C[C@@H]2CC[C@@H](C)[C@@](O)(O2)C(=O)C(=O)N2CCCC[C@H]2C(=O)O[C@H]([C@H](C)C[C@@H]2CC[C@@H](O)[C@H](OC)C2)CC(=O)[C@H](C)/C=C(\C)[C@@H](OC(=O)NCc2cnc(N3CCN(C(=O)CCOCCN4CCN(c5ncc(C(=O)N6CCc7cc(Cn8nc(-c9ccc%10oc(N)nc%10c9)c9c(N)ncnc98)ccc7C6)cn5)CC4)CC3)nc2)[C@@H](OC)C(=O)[C@H](C)C[C@H](C)/C=C/C=C/C=C/1C` [Example 133], the IC50 in assay [1] is no more than 3.16 nM.

For the molecule `CO[C@H]1C[C@@H]2CC[C@@H](C)[C@@](O)(O2)C(=O)C(=O)N2CCCC[C@H]2C(=O)O[C@H]([C@H](C)C[C@@H]2CC[C@@H](OC(=O)NCc3cnc(N4CCN(C(=O)CCOCCN5CCN(c6ncc(C(=O)NCCCCn7nc(-c8ccc9oc(N)nc9c8)c8c(N)ncnc87)cn6)CC5)CC4)nc3)[C@H](OC)C2)CC(=O)[C@H](C)/C=C(\C)[C@@H](O)[C@@H](OC)C(=O)[C@H](C)C[C@H](C)/C=C/C=C/C=C/1C` [Example 54], the IC50 in assay [2] and in assay [1] was no more than 3.16 nM each time. Consider `CO[C@H]1C[C@@H]2CC[C@@H](C)[C@@](O)(O2)C(=O)C(=O)N2CCCC[C@H]2C(=O)O[C@H]([C@H](C)C[C@@H]2CC[C@@H](OC(=O)NCc3cnc(N4CCN(C(=O)CCOCCN5CCN(c6ncc(C(=O)N7CCc8cc(Cn9nc(-c%10ccc%11oc(N)nc%11c%10)c%10c(N)ncnc%109)ccc8C7)cn6)CC5)[C@@H](C(=O)O)C4)nc3)[C@H](OC)C2)C[C@@H](OC)[C@H](C)/C=C(\C)[C@@H](O)[C@@H](OC)C(=O)[C@H](C)C[C@H](C)/C=C/C=C/C=C/1C` [Example 131], for which the IC50 in assay [2] is 3.16 to 31.6 nM. Consider `CO[C@H]1C[C@@H]2CC[C@@H](C)[C@@](O)(O2)C(=O)C(=O)N2CCCC[C@H]2C(=O)O[C@H]([C@H](C)C[C@@H]2CC[C@@H](OC(=O)NCc3cnc(N4CCN(c5ncc(C(=O)NCCOCCC(=O)N6CCN(c7ncc(C(=O)NCCCCn8nc(-c9ccc%10oc(N)nc%10c9)c9c(N)ncnc98)cn7)CC6)cn5)CC4)nc3)[C@H](OC)C2)CC(=O)[C@H](C)/C=C(\C)[C@@H](O)[C@@H](OC)C(=O)[C@H](C)C[C@H](C)/C=C/C=C/C=C/1C` [Example 53], for which the IC50 in assay [2] is 3.16 to 31.6 nM. On to `CO[C@H]1C[C@@H]2CC[C@@H](C)[C@@](O)(O2)C(=O)C(=O)N2CCCC[C@H]2C(=O)O[C@H]([C@H](C)C[C@@H]2CC[C@@H](OC(=O)N3CCc4nc(N5CCN(C(=O)CCOCCN6CCN(c7ncc(C(=O)N8CCc9cc(Cn%10nc(-c%11ccc%12oc(N)nc%12c%11)c%11c(N)ncnc%11%10)ccc9C8)cn7)CC6)CC5)ncc4C3)[C@H](OC)C2)C[C@@H](OC)[C@H](C)/C=C(\C)[C@@H](O)[C@@H](OC)C(=O)[C@H](C)C[C@H](C)/C=C/C=C/C=C/1C` [Example 114], for which the IC50 in assay [2] is greater than 1000 nM. `CO[C@H]1C[C@@H]2CC[C@@H](C)[C@@](O)(O2)C(=O)C(=O)N2CCCC[C@H]2C(=O)O[C@H]([C@H](C)C[C@@H]2CC[C@@H](OC(=O)NCc3cnc(N4CCN(c5ncc(C(=O)NCCOCCOCCOCCOCCC(=O)N6CCc7cc(Cn8nc(-c9cnc%10[nH]ccc%10c9)c9c(N)ncnc98)ccc7C6)cn5)CC4CO)nc3)[C@H](OC)C2)CC(=O)[C@H](C)/C=C(\C)[C@@H](O)[C@@H](OC)C(=O)[C@H](C)C[C@H](C)/C=C/C=C/C=C/1C` (stereo partly drawn) [Example 41]: the IC50 in assay [2] was greater than 1000 nM. As for `CO[C@H]1C[C@@H]2CC[C@@H](C)[C@@](O)(O2)C(=O)C(=O)N2CCCC[C@H]2C(=O)O[C@H]([C@H](C)C[C@@H]2CC[C@@H](OC(=O)NCCOCCOCCOCCOCCOCCOCCOCCOCCC(=O)NCc3ccc(Cn4nc(-c5ccc6oc(N)nc6c5)c5c(N)ncnc54)cc3)[C@H](OC)C2)C[C@H](N=[N+]=[N-])[C@H](C)/C=C(\C)[C@@H](O)[C@@H](OC)C(=O)[C@H](C)C[C@H](C)/C=C/C=C/C=C/1C` [Example 82], the IC50 in assay [1] is no more than 3.16 nM.

Turning to `CO[C@H]1C[C@@H]2CC[C@@H](C)[C@@](O)(O2)C(=O)C(=O)N2CCCC[C@H]2C(=O)O[C@H]([C@H](C)C[C@@H]2CC[C@@H](OC(=O)NCc3cnc(N4CCN(C(=O)CCOCCN5CCN(c6ncc(C(=O)NCCS(=O)(=O)c7ccc(C(=O)N8CCOc9ccc(-c%10ccc(N)nc%10)cc9C8)c(C)c7F)cn6)CC5)CC4)nc3)[C@H](OC)C2)C[C@@H](OC)[C@H](C)/C=C(\C)[C@@H](O)[C@@H](OC)C(=O)[C@H](C)C[C@H](C)/C=C/C=C/C=C/1C` [Example 120], the IC50 in assay [2] was 3.16 to 31.6 nM. For the molecule `CO[C@H]1C[C@@H]2CC[C@@H](C)[C@@](O)(O2)C(=O)C(=O)N2CCCC[C@H]2C(=O)O[C@H]([C@H](C)C[C@@H]2CC[C@@H](OC(=O)NCc3cnc(N4CCN(C(=O)CCOCCN5CCN(C(=O)CCC(=O)N6CCc7cc(Cn8nc(-c9ccc%10oc(N)nc%10c9)c9c(N)ncnc98)ccc7C6)CC5)CC4)nc3)[C@H](OC)C2)C[C@@H](O)[C@H](C)/C=C(\C)[C@@H](O)[C@@H](OC)C(=O)[C@H](C)C[C@H](C)/C=C/C=C/C=C/1C` [Example 129], the IC50 in assay [2] was greater than 1000 nM.

`CO[C@H]1C[C@@H]2CC[C@@H](C)[C@@](O)(O2)C(=O)C(=O)N2CCCC[C@H]2C(=O)O[C@H]([C@H](C)C[C@@H]2CC[C@@H](OC(=O)NCCOCCOCCOCCOCCOCCOCCOCCOCCC(=O)NCc3ccc(Cn4nc(-c5ccc6oc(N)nc6c5)c5c(N)ncnc54)cc3)[C@H](OC)C2)CC(=O)[C@H](C)/C=C(\C)[C@@H](O)[C@@H](OC)C(=O)[C@H](C)C[C@H](C)/C=C/C=C/C=C/1C` [Example 79]: in assay [2], the IC50 was 31.6 to 1000 nM.

Consider `CO[C@H]1C[C@@H]2CC[C@@H](C)[C@@](O)(O2)C(=O)C(=O)N2CCCC[C@H]2C(=O)O[C@H]([C@H](C)C[C@@H]2CC[C@@H](OC(=O)NCCOCCOCCN3C[C@@H]4C[C@H]3CN4CCOCCOCCOCCOCCC(=O)N3CCc4cc(Cn5nc(-c6ccc7oc(N)nc7c6)c6c(N)ncnc65)ccc4C3)[C@H](OC)C2)C[C@@H](O)[C@H](C)/C=C(\C)[C@@H](O)[C@@H](OC)C(=O)[C@H](C)C[C@H](C)/C=C/C=C/C=C/1C` [Example 152], for which the IC50 in assay [2] is 31.6 to 1000 nM. As to `CO[C@H]1C[C@@H]2CC[C@@H](C)[C@@](O)(O2)C(=O)C(=O)N2CCCC[C@H]2C(=O)O[C@H]([C@H](C)C[C@@H]2CC[C@@H](OC(=O)NCc3cnc(N4CCN(C(=O)CCOCCN5CCN(c6ncc(C(=O)N7CCc8cc(Cn9nc(-c%10ccc%11oc(N)nc%11c%10)c%10c(N)ncnc%109)ccc8C7)cn6)CC5)CC4)nc3)[C@H](OC)C2)CC[C@H](C)/C=C(\C)[C@@H](O)[C@@H](OC)C(=O)[C@H](C)C[C@H](C)/C=C/C=C/C=C/1C` [Example 115], in assay [2], the IC50 is no more than 3.16 nM. As to `CO[C@H]1C[C@@H]2CC[C@@H](C)[C@@](O)(O2)C(=O)C(=O)N2CCCC[C@H]2C(=O)O[C@H]([C@H](C)C[C@@H]2CC[C@@H](OC(=O)NCc3cnc(N4CCN(CCOCCN5CCN(c6ncc(C(=O)N7CCc8cc(Cn9nc(-c%10ccc%11oc(N)nc%11c%10)c%10c(N)ncnc%109)ccc8C7)cn6)CC5)CC4)nc3)[C@H](OC)C2)C[C@@H](OC)[C@H](C)/C=C(\C)[C@@H](O)[C@@H](OC)C(=O)[C@H](C)C[C@H](C)/C=C/C=C/C=C/1C` [Example 125], the IC50 in assay [1] was no more than 3.16 nM.
